Measured values: ChEMBL document CHEMBL4477179, “Wewakazole B, a Cytotoxic Cyanobactin from the Cyanobacterium Moorea producens Collected in the Red Sea” (J Nat Prod, 2016)
Active and inactive are the calls of the source. The rule behind the calls is not given here. *1 amine or outer side, *2 acyl side, *3 side chain or, on linkers, in order; H or OH if unused. Where a SMILES comes first, the peptide text is derived from it. [ ]: non-standard residue; d: D form. X1 = Cc1oc([C@H](Cc2ccccc2)N[*:1])nc1C(=O)[*:2]; X3 = CC[C@H](C)[C@H](N[*:1])c1nc(C(=O)[*:2])co1; X2 = Cc1oc([C@H](C)N[*:1])nc1C(=O)[*:2]

How the values were obtained:
[1] = Metal chelating activity assessed as Fe3+ complex formation measured after 45 mins by CAS assay; format: functional
NCI-H460 = assay: Cytotoxicity against human NCI-H460 cells measured after 72 hrs by MTT assay; format: functional, cell-based; details: NCI-H460, 72 h
[2] = Metal chelating activity assessed as Fe3+ complex formation at 89 uM measured after 45 mins by CAS assay; format: functional
MCF7 = assay: Cytotoxicity against human MCF7 cells measured after 72 hrs by MTT assay; format: functional, cell-based; details: MCF7, 72 h

IC50 [1]	SMILES	IC50 (NCI-H460)	Activity [2]	IC50 (MCF7)
5100 nM	CC(=O)N(O)CCCCCNC(=O)CCC(=O)N(O)CCCCCNC(=O)CCC(=O)N(O)CCCCCN [DEFEROXAMINE]	–	–	–
–	CC[C@H](C)[C@@H]1NC(=O)[C@@H]2CCCN2C(=O)[C@H](Cc2ccccc2)NC(=O)c2nc(oc2C)[C@H](C)NC(=O)c2nc(oc2C)[C@H](Cc2ccccc2)NC(=O)CNC(=O)[C@@H]2CCCN2C(=O)[C@@H]2CCCN2C(=O)[C@H](C)NC(=O)c2coc1n2 (cyclo(APPG[X1][X2]FP[X3]))	1000 nM	inactive	580 nM
